Experimental data published in US8207134B2, “Fused ring spiroketal derivative and use thereof as anti-diabetic drug” (Chugai Seiyaku Kabushiki Kaisha, priority 2006, dated 2012).

Biological target: T1, human SGLT2 (Homo sapiens, UniProt P31639)
T1 construct: expressed in transfected cells; host or cells: CHO-K1
T1 sequence (P31639 1-672): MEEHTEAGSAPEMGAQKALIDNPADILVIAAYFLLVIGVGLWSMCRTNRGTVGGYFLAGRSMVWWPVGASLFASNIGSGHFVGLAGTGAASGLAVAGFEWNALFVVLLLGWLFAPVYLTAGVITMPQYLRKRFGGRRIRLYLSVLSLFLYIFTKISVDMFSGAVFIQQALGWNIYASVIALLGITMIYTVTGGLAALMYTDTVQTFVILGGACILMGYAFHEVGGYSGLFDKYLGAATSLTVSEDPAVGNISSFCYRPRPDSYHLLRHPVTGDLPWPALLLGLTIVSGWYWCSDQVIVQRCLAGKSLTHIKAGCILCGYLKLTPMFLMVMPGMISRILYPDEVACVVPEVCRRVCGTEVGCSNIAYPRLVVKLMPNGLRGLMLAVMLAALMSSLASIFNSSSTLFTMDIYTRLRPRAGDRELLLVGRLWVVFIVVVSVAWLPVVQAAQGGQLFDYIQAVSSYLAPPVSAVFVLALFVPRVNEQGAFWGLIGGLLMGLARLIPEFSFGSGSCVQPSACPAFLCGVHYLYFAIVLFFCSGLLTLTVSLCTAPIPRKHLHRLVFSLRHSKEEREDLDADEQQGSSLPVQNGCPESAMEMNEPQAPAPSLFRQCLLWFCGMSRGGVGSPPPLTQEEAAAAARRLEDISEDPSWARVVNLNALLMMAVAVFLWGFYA
Test: Inhibitory activity against methyl-α-D-glucopyranoside uptake of human Na+-glucose cotransporter SGLT2
Type: cell-based
Conditions: CHO-K1 cells stably expressing human SGLT2; methyl-α-D-(U-14C)glucopyranoside uptake, 37° C. for 45 minutes; read-out: Ic50 value (inhibition of SGLT2)
From the text: Evaluation of Inhibitory Activity Against Methyl-α-D-Glucopyranoside Uptake of Human Na^+-Glucose Cotransporter (SGLT1 and SGLT2)
2) Construction of Human SGLT2 Expression Vector
Human SGLT2 cDNA was amplified by PCR with a cDNA library derived from human kidney (Clontech) as a template, synthetic DNA primers and KOD+ DNA Polymerase. The amplified cDNA was inserted into pcRII-Topo vector by using a Topo TA Cloning Dual Promoter kit. E. coli competent cells (TPO10) were transformed with the plasmid vector, cultured in LB medium containing ampicillin (50 mg/L) to grow ampicillin-resistant clones. The plasmid vector containing human SGLT2 cDNA was purified from the clone in a standard manner. Human SGLT2 cDNA added restriction enzyme recognition sites (Xho I at 5′-end, Hind III at 3′-end) was amplified by PCR with the plasmid vector as a template, synthetic DNA primers containing an additional restriction enzyme recognition site and KOD+ DNA Polymerase. This amplified cDNA was digested with Xho I and Hind III, and ligated into expression vector pcDNA3.1(−) digested with Xho I and Hind III by using a Rapid DNA Ligation kit. E. coli competent cells (DH5α) were transformed with the ligated expression vector and grown in ampicillin-containing LB medium. Human SGLT2 expression vector was purified from the ampicillin-resistant clone in a standard manner.
3) Establishment of Cell Lines Stably Expressing Human SGLT1 or Human SGLT2
The human SGLT1 expression vector or the human SGLT2 expression vector was digested with the restriction enzyme Pvu I and transfected into CHO-Kl cells with FuGENE (Roche Diagonostics). After the transfection, the cells were cultured at 37° C. in the presence of 5% CO2 for about 3 weeks in DMEM medium (Gibco) containing penicillin (50 U/mL, SIGMA), streptomycin (50 mg/L, SIGMA), geneticin (200 mg/L, Nacalai Tesque, Inc., Japan) and 20% fetal bovine serum to obtain geneticin-resistant clones. […]

Compound | IC50 [nM]
CCc1ccc(Cc2csc3cc4c(cc23)[C@]2(OC4)O[C@H](CO)[C@@H](O)[C@H](O)[C@H]2O)cc1 [Example 1, (3′R,4′S,5S,5′S,6′R)-3-[(4-ethylphenyl)methyl]-6′-(hydroxymethyl)-3′,4′,5′,6′-tetrahydro-spiro[thieno[2,3,f]isobenzofuran-5(7H),2′-[2H]pyran]-3′,4′,5′-triol] | 3.9
CCc1ccc(Cn2ccc3cc4c(cc32)[C@]2(OC4)O[C@H](CO)[C@@H](O)[C@H](O)[C@H]2O)cc1 [Example 2, (3′R,4′S,5′S,6′R,7S)-1-[(4-ethylphenyl)methyl]-6′-hydroxymethyl-3′,4,5′,6′-tetrahydro-spiro[furo[3,4,f]indole-7(5H),2′-[2H]pyran]-3′,4′,5′-triol] | 2
CCc1ccc(Cc2cccc3c4c(sc23)C2(OCC4)O[C@H](CO)[C@@H](O)[C@H](O)[C@H]2O)cc1 (stereo in doubt) [Example 3, (1S,3′R,4′S,5′S,6′R)-8-[(4-ethylphenyl)methyl]-3,3′,4,4′,5′,6′-hexahydro-6′-hydroxymethyl-spiro[2-oxa-9-thia-fluorene-1,2′-[2H]pyran]-3′,4′,5′-triol] | 5.1
